Calls of active or inactive are those of the source.
How the values were obtained:
Protein RecA = biological target: T1, Protein RecA (Mycobacterium tuberculosis, UniProt P9WHJ3); assay: Fluorescence Cell-Free Homogeneous Dose Retest to Identify Inhibitors of RecA-Intein Splicing Activity. [Related pubchem assays (depositor defined):AID2097, AID2223, AID489010, AID492950]; assay type: functional
T1 sequence (P9WHJ3 whole entry): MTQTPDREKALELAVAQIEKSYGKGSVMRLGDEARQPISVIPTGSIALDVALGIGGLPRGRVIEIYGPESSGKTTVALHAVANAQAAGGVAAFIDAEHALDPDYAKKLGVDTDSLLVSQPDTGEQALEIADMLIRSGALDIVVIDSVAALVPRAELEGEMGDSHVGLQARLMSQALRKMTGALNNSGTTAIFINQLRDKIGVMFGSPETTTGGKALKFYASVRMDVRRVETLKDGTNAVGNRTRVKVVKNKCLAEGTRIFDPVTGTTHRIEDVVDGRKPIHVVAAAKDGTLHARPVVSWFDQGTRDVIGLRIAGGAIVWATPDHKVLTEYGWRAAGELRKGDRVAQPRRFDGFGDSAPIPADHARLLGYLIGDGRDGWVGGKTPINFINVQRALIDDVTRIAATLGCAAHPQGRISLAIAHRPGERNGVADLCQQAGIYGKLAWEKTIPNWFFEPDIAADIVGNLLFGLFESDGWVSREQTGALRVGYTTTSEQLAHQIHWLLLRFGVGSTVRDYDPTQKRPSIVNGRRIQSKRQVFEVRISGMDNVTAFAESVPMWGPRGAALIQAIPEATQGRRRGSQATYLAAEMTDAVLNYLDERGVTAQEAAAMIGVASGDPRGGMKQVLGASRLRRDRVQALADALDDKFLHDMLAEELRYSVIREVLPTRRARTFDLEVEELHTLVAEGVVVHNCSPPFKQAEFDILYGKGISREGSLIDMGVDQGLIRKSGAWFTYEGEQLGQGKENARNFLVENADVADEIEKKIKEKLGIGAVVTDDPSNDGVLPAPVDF

[1] = biological target: T2, Replicative DNA helicase DnaB (Mycobacterium tuberculosis, UniProt P9WMR3); assay: DnaB intein splicing inhibitors, dose response, biochemical, cell-free fluorescence (AID 449749); assay type: functional
T2 sequence (P9WMR3 whole entry): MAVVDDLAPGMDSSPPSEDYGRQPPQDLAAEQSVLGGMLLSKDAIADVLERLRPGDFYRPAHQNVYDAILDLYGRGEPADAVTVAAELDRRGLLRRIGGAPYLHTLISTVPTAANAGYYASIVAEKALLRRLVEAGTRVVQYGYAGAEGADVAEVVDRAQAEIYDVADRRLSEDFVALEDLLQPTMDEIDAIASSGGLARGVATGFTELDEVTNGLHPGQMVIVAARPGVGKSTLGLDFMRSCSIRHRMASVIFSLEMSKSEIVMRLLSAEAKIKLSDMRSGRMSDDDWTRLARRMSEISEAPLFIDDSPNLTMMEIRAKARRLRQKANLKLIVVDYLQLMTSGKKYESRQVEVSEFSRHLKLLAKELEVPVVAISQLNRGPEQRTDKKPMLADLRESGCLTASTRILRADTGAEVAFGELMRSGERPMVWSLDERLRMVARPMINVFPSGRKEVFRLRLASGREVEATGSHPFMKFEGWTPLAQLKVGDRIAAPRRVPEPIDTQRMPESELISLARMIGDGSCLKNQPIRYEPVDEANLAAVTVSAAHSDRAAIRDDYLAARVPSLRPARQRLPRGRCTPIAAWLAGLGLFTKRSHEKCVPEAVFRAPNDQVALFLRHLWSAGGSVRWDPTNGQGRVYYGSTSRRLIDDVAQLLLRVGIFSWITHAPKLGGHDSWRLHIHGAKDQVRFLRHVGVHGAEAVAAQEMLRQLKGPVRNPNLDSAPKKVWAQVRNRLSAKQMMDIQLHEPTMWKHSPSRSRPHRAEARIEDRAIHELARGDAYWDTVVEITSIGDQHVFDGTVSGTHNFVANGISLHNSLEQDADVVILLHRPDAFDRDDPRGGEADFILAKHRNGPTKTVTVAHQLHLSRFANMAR

X-box-binding protein 1 = X-box-binding protein 1 (Homo sapiens, UniProt P17861); assay type: functional, Cricetulus griseus;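 also: confirmatory dose-response counter-screen serving a CHOP assay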
Sequence of X-box-binding protein 1 (P17861 whole entry): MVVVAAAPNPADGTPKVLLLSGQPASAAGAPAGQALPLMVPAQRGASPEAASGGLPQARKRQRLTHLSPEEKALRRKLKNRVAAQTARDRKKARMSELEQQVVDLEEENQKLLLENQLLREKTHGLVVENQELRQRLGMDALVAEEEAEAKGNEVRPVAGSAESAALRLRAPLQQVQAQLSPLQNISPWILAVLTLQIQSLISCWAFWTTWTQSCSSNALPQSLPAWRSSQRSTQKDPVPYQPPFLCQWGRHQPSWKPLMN

[2] = biological target: Phosphoethanolamine/phosphocholine phosphatase (Homo sapiens, UniProt Q8TCT1); assay: SAR assay for compounds that inhibit PHOSPHO1. [Related pubchem assays (depositor defined):AID1545, AID1565, AID1574]
Sequence of Phosphoethanolamine/phosphocholine phosphatase (Q8TCT1 whole entry): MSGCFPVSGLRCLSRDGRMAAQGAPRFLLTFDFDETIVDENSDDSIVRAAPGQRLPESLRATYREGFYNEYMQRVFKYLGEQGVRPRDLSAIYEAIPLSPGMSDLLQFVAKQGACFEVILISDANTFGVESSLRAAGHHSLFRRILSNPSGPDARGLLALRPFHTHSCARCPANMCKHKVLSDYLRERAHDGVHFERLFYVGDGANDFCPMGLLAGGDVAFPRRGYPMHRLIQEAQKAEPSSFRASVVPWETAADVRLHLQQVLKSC

[3] = biological target: T3, Mannose-6-phosphate isomerase (Homo sapiens, UniProt P34949); assay: PMI enzyme inhibitors, confirmation, biochemical, fluorescence intensity (AID 1535)
T3 sequence (P34949 whole entry): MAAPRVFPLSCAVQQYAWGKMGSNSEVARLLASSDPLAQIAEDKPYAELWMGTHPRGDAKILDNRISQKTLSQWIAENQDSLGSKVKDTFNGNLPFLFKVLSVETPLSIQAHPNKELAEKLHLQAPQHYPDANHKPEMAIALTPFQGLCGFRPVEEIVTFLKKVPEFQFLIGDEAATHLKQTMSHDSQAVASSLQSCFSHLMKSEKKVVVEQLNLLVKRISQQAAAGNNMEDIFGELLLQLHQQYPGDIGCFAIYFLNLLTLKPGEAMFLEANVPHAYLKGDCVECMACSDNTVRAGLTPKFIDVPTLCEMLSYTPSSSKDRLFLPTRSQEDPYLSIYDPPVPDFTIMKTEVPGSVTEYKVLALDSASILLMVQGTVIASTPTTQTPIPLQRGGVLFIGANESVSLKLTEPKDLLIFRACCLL

Phosphomannomutase 2 = biological target: T4, Phosphomannomutase 2 (Homo sapiens, UniProt O15305); assay: Counter screen SAR assay for PMM2 inhibitors via a fluorescence intensity assay. [Related pubchem assays (depositor defined):AID1545, AID1574]
T4 sequence (O15305 whole entry): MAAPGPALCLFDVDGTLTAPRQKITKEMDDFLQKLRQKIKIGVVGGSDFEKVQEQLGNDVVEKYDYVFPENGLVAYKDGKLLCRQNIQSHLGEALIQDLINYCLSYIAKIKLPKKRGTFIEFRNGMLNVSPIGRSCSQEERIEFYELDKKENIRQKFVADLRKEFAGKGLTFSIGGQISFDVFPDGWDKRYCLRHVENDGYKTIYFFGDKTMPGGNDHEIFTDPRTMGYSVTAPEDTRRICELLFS

[4] = biological target: DNA dC->dU-editing enzyme APOBEC-3G (Homo sapiens, UniProt Q9HC16); assay: Dose Response confirmation of small molecule APOBEC3G DNA Deaminase Inhibitors via a fluorescence-based single-stranded DNA deaminase assay. [Related pubchem assays (depositor defined):AID493012, AID493028]; assay type: functional
Sequence of DNA dC->dU-editing enzyme APOBEC-3G (Q9HC16 whole entry): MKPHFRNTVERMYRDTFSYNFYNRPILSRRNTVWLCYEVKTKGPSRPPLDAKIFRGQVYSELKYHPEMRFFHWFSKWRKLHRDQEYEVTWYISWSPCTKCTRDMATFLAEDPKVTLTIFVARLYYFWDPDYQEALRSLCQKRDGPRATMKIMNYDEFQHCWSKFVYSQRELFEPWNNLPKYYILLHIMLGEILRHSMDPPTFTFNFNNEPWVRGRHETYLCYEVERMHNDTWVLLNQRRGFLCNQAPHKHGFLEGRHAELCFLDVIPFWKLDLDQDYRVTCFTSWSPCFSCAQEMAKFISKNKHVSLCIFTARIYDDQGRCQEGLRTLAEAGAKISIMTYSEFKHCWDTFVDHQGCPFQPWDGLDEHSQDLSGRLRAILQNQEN

[5] = biological target: T3, Mannose-6-phosphate isomerase; assay: human PMI inhibitors, high substrate, primary screen, biochemical, fluorescence intensity, high mannose 6-phosphate (AID 1220)
Streptokinase A = biological target: T5, Streptokinase A (Streptococcus pyogenes serotype M1, UniProt P10520); assay: S. pyogenes streptokinase expression inhibitors, potency, dose response, plasminogen activation absorbance, OD405 (AID 1914); assay type: functional, Streptococcus pyogenes M1 GAS;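 also: secreted streptokinase activity via plasminogen activation per viability signal from cell pellet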
T5 sequence (P10520 whole entry): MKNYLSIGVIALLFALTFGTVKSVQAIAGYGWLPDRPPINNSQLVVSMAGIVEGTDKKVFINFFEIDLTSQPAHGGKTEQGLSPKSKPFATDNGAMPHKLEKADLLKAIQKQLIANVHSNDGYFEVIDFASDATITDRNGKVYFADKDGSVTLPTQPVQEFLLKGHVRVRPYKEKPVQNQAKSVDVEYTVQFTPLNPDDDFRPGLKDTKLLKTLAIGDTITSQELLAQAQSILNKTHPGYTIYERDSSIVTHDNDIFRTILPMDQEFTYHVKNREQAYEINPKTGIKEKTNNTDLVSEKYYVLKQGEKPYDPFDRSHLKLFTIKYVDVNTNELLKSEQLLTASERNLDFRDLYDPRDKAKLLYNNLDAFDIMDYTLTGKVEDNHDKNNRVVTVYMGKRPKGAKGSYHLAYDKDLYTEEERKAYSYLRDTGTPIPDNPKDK

[6] = test system: Streptococcus sp. 'group A'; assay: growth inhibition of control SK(-) GAS strain, dose response, counter-screen for streptokinase expression inhibitor project, luminescence, kanamycin, BacTiterGlo, confirmation (AID 1900); assay type: functional, organism-based
Streptococcus = assay: Group A Streptococcus viability loss, dose response, counter-screen for streptokinase expression inhibitor project, luminescence, BacTiterGlo (AID 1915); assay type: functional, organism-based;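 also: potency for reduction of bacterial viability or growth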
[7] = biological target: DNA dC->dU-editing enzyme APOBEC-3A (Homo sapiens, UniProt P31941); assay: APOBEC3A DNA deaminase inhibitors, dose response, biochemical (AID 504722); assay type: functional
Sequence of DNA dC->dU-editing enzyme APOBEC-3A (P31941 whole entry): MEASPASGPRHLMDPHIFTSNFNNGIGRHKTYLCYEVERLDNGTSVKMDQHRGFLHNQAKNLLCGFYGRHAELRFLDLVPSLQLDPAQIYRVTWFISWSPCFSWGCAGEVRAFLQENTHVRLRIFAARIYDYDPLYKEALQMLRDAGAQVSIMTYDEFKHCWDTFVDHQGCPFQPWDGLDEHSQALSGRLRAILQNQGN

[8] = biological target: Glucose-6-phosphate 1-dehydrogenase (Homo sapiens, UniProt P11413); assay: human G6PD enzyme inhibitors, dose response, selectivity assay for P. falciparum G6PD inhibitor project, biochemical, fluorescence (AID 504792); assay type: functional
Sequence of Glucose-6-phosphate 1-dehydrogenase (P11413 whole entry): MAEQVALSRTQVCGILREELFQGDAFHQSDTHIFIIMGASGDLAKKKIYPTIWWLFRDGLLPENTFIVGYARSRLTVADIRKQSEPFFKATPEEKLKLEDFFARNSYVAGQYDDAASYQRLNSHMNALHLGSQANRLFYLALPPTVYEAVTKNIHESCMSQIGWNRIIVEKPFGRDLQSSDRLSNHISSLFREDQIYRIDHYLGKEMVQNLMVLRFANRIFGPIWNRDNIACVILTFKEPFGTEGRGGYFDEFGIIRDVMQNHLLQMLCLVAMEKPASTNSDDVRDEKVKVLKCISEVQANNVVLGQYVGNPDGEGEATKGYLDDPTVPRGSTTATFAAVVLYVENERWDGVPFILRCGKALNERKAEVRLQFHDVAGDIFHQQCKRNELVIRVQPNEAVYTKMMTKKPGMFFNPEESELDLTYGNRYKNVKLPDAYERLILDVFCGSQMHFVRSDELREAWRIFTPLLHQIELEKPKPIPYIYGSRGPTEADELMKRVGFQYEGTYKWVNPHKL

[9] = biological target: Eukaryotic translation initiation factor 4E (Mus musculus, UniProt P63073); assay: eIF4E–eIF4G protein interaction inhibitors, dose response, biochemical, TR-FRET (AID 855); assay type: functional;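 also: potency for disrupting eIF4E binding to eIF4GI seen as loss of FRET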
Sequence of Eukaryotic translation initiation factor 4E (P63073 whole entry): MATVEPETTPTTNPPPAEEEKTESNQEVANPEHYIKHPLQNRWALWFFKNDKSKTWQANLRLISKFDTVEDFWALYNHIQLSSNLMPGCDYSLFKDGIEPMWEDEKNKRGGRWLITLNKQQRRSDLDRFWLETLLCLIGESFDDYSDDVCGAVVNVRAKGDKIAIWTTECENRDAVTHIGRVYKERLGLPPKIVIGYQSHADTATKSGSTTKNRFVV

Large T antigen = Large T antigen (Simian virus 40, UniProt P03070); assay type: functional, Betapolyomavirus macacae;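 also: Confirmatory-stage PubChem screen for compounds that inhibit SV40 T antigen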
Sequence of Large T antigen (P03070 whole entry): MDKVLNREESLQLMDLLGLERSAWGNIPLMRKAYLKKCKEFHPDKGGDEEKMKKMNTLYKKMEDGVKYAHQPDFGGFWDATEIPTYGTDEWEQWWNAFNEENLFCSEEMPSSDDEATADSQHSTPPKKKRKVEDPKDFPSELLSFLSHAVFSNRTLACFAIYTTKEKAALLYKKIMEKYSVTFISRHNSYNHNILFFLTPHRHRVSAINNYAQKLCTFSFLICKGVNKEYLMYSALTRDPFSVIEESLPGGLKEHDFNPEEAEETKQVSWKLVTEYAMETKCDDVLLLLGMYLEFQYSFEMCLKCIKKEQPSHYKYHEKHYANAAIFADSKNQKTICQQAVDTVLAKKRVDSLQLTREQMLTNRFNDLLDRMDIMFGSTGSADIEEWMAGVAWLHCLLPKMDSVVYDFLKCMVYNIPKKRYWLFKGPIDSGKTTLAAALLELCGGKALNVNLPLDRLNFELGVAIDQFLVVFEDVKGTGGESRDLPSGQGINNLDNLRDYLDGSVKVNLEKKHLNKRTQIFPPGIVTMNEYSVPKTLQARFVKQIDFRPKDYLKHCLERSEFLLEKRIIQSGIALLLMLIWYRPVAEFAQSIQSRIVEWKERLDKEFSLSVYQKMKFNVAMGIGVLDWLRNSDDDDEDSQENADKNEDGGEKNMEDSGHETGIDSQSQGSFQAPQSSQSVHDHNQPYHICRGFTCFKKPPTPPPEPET

[10] = biological target: T6, Polyadenylate-binding protein 1 (Homo sapiens, UniProt P11940); assay: PABP1 MLLE–PAM2 binding inhibitor potency, dose response, biochemical, fluorescence polarization, FITC-PAM2 peptide (AID 602259); assay type: functional; conditions: read-out: IC50_Mean
T6 sequence (P11940 whole entry): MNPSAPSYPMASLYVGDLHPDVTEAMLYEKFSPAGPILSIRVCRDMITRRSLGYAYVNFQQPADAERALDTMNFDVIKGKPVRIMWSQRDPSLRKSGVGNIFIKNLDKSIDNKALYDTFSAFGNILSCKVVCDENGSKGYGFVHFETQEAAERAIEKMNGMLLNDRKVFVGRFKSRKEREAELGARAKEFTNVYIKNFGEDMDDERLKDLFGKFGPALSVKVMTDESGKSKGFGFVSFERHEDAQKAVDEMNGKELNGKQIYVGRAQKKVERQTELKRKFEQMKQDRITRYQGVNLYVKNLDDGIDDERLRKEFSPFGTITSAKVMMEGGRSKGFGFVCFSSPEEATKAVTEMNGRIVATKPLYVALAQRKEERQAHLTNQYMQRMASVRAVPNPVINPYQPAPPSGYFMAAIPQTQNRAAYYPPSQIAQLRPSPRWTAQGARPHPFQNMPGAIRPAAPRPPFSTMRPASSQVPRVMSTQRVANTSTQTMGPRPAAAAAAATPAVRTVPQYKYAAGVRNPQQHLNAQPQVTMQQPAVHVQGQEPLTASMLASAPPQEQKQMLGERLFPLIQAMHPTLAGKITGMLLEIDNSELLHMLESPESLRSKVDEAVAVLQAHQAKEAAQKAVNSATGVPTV

[11] = growth suppression of beta-catenin-knockout colon cells, dose response, cell-based, HCT116, human colon tumor (AID 1045); assay type: functional;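 also: HCT116 colon tumor cells with beta catenin knocked out; cells exposed to compound for 60 hours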
[12] = growth suppression of PTEN-null colon cells, dose response, cell-based, HCT116 PTEN knockout (AID 1047); assay type: functional;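 also: HCT116 colon tumor cells with PTEN knocked out; cells exposed to compound for 60 hours before readout; potency for loss of cell viability measured by luminescence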
[13] = biological target: T6, Polyadenylate-binding protein 1; assay: PABP1 MLLE–PAM2 interaction inhibitors, dose response, miRNA deadenylation inhibitor project, biochemical, fluorescence polarization, Cy5-PAM2 peptide, secondary (AID 602260); assay type: functional; conditions: read-out: IC50_Mean
[14] = biological target: T3, Mannose-6-phosphate isomerase; assay: inhibitors of human PMI, primary screen, biochemical, fluorescence intensity, coupled assay (AID 1209)
[15] = biological target: Intestinal-type alkaline phosphatase (Homo sapiens, UniProt P09923); assay: Dose Response confirmation of uHTS hits from a small molecule inhibitors of human intestinal alkaline phosphatase via a luminescent assay. [Related pubchem assays (depositor defined):AID2544, AID2574]; assay type: functional
Sequence of Intestinal-type alkaline phosphatase (P09923 whole entry): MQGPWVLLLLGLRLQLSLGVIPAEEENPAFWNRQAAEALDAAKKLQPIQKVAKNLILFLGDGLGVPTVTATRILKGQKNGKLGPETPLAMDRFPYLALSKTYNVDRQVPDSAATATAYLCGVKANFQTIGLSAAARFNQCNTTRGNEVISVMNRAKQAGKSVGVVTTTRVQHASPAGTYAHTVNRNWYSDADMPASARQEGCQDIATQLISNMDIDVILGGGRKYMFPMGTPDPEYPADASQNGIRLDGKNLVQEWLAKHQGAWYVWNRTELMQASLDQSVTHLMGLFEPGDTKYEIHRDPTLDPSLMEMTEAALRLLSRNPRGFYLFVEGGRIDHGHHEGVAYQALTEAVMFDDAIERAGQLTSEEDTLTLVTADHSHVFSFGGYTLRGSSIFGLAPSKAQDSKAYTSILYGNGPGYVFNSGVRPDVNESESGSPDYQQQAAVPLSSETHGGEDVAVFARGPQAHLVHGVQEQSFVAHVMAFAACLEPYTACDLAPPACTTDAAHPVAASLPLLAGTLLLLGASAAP

[16] = biological target: Heat shock protein HSP 90-alpha (Homo sapiens, UniProt P07900); assay type: functional, organism-based
[17] = biological target: T7, Small ubiquitin-related modifier 1 (Homo sapiens, UniProt P63165); assay: inhibitors of SUMO1 partner interactions, dose response, biochemical, FRET (AID 624383); assay type: functional; conditions: read-out: IC50_Mean
T7 sequence (P63165 whole entry): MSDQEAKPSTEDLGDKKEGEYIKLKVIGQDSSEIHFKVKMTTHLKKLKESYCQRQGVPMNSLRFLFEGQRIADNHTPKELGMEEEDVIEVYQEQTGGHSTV

[18] = biological target: T8, DNA repair protein RAD52 homolog (Homo sapiens, UniProt P43351); assay type: functional, biochemical
T8 sequence (P43351 whole entry): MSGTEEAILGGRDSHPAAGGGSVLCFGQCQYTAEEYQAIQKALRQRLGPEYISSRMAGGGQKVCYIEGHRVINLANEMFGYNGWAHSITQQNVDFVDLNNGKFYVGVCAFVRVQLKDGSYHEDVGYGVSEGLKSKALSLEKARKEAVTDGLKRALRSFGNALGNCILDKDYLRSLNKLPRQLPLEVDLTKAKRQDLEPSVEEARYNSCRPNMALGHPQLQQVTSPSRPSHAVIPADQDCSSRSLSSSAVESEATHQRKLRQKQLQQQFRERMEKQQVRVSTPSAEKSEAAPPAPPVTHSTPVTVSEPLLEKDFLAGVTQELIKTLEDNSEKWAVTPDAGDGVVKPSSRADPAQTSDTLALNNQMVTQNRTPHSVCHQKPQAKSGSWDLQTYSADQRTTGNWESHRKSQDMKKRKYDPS

[19] = biological target: T7, Small ubiquitin-related modifier 1; assay: inhibitors of SUMO1 peptide binding, dose response, biochemical, fluorescence polarization, uHTS hits (AID 624382); assay type: functional; conditions: read-out: IC50_Mean
[20] = biological target: Induced myeloid leukemia cell differentiation protein Mcl-1 (Homo sapiens, UniProt Q07820); assay type: functional
Sequence of Induced myeloid leukemia cell differentiation protein Mcl-1 (Q07820 whole entry): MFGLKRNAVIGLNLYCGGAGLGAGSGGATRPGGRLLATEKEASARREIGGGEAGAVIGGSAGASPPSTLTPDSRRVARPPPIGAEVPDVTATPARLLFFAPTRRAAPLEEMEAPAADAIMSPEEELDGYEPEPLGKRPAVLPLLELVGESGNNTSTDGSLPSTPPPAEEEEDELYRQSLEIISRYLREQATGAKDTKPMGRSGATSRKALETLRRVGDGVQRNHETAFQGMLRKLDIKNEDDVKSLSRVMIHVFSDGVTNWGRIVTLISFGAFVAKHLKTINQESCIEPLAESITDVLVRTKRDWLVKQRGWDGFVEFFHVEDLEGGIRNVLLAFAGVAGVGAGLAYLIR

Compound: CC1=NN(c2ccccc2)C(=O)/C1=C/c1cc2ccccc2[nH]1
- EC50 (Protein RecA): 10.9 µM (active)
- AC50 [1]: 19.2 µM (active)
- Absolute IC50 (XBP1) (X-box-binding protein 1): 10 µM

Compound: O=c1c2ccc(F)cc2sn1-c1cc(Cl)cc(Cl)c1
- IC50 [2]: > 100 µM (inactive)
- IC50 [3]: > 50 µM (inactive)
- IC50 (Phosphomannomutase 2): > 100 µM (inactive)

Compound: O=C(Cn1sc2ccccc2c1=O)NC12CC3CC(CC(C3)C1)C2
- IC50 [4]: 6.94 µM (active)
- IC50 [5]: > 50 µM (not active)
- EC50 (Streptokinase A): > 150 µM (not active)
- EC50 [6]: 0.637 µM (active)
- IC50 [3]: > 50 µM (inactive)
- EC50 (Streptococcus): 7.2 µM (active)
- IC50 [7]: > 100 µM (inactive)
- IC50 [8]: 13.5 µM (active)
- IC50 [9]: > 64 µM (inactive)
- IC50 (Large T antigen): 14 µM (active)
- IC50 [10]: > 66 µM (inactive)
- EC50 [11]: 22.4 µM (active)
- IC50 (Phosphomannomutase 2): > 100 µM (inactive)
- EC50 [12]: 30.2 µM (active)
- IC50 [13]: > 66 µM (inactive)
- IC50 [14]: > 50 µM (not active)

Compound: Cc1cc(NC(=O)c2ccc(N3C(=O)C4C5C=CC(C5)C4C3=O)cc2)no1 (configuration not stated)
- IC50 [15]: > 100 µM (inactive)

Compound: CCCCCCCCCCCCCCCC[n+]1cccc2ccccc21
- AC50 [16]: 2.87 µM (active)
- IC50 [17]: 8.86 µM (active)
- IC50 [9]: 5.71 µM (active)
- EC50 [11]: 0.17 µM (active)
- AC50 [18]: 3.67 µM (active)
- EC50 [12]: 0.295 µM (active)
- IC50 [19]: > 66.6 µM (inactive)
- IC50 [20]: 4.32 µM (active)

Compound: O=C(CSc1nc(-c2cccs2)cc(C(F)(F)F)n1)NCc1ccccc1
- IC50 [15]: > 100 µM (inactive)

From ChEMBL document CHEMBL1201862, “PubChem BioAssay data set” (2004)
